Key:
SQ20B xenografts = test: SQ20B xenograft model; format: in vivo
Protocol: FIG. 6. […] A—The antitumor effects of OTX-008 on A2780-1A9 xenograft were compared to that of active doses of cisplatin and paclitaxel—solid line represents days of treatment. B—Immunohistochemistry of galectin-1, Ki67 (MIB-1) and CD31 on A2780-1A9 xenograft. C—Tumor growth and secondary tumor formation of SQ20B xenografts untreated and treated with 10 mg/kg/day OTX-008 and SQ-shGAL1 xenografts. Tumor volume was determined as 3.14(width2)/length—solid line represents days of treatment. D—Immunohistochemistry of galectin-1, MIB1, VEGFR2 and CD31 on SQ20B xenografts
The immunohistochemical procedure was performed on OCT-embedded subcutaneous tumor stained with H&E, MIB1 ( 1/400, Dako, Glostrup, Denmark), CD31 ( 1/200, Dako), VEGFR2 ( 1/125, Cell Signaling, Saint Quentin Yvelines, France) or galectin-1 (1:20, Abcam, Cambridge, Mass., USA) using an automated immunohistochemical stainer according to the manufacturer's guidelines (streptavidin-peroxidase protocol; Benchmark, Ventana, Tuscon, Ariz., USA). The images were captured and analyzed with a Zeiss observer Z1 microscope. Images quantification was performed using Histolab Software (Microvision, France) subtracting the background. Magnification ×20 and ×40.
5.10^6 SQ20B or SQ20B-shGal1 cancer cells were injected s.c. into the right lateral flank of female nu/nu athymic mice. On day 5, mice were randomized; one group of SQ20B-mice was treated every other day with 10 mg/kg OTX-008 i.p. Tumor size was measured twice weekly with caliper and tumor volume was calculated as 3.14(width^2)/length. At the end of the study, mice were sacrificed, tumors were weighed and stored in OCT for molecular biology and immunohistochemical analysis. Secondary tumors were analyzed on liver, lung, intestine and skin in all mice. Mouse experiments complied with guidelines for Animal Housing and Experiment Board of the French authorities.

γH2AX = γH2AX expression; format: cell-based, human
chk1, chk2, and cdc25C = test: chk1, chk2 and cdc25C phosphorylation in SQ20B; format: cell-based, human; settings: OTX-008-treated SQ20B cells
[1] = system: COL0205-S and COL0205-R cells; test: Antiproliferative effects, epithelial vs mesenchymal COLO205; format: cell-based, human
From the text: FIG. 2. Epithelial-to-mesenchymal differentiation and OTX-008 sensitivity. A—Correlations between galectin-1 (LGALS1) and vimentin, E-cadherin (CDH1) and N-cadherin (CDH2) relative mRNA expression. B—Correlations between OTX-008 IC50s and vimentin, E-cadherin (CDH1) and N-cadherin (CDH2) relative mRNA expression. C—Antiproliferative effects of OTX-008 in epithelial COLO205-S and mesenchymal COLO205-R colon cancer cells. D—Antiproliferative effects of OTX-008 in SNAIL-inducible colon cancer cell lines. E—Antiproliferative effects of OTX-008 in shWISP breast cancer cell lines.
Cell survival was determined using the MTT assay (3-[4,5-dimethylthiazol-2-yl]-2,5-diphenyltetrazolium bromide; Sigma, Saint-Quentin Fallavier, France). The conversion of yellow water-soluble tetrazolium MTT into purple insoluble formazan is catalyzed by mitochondrial dehydrogenases and used to estimate the number of viable cells. In brief, cells were seeded in 96-well tissue culture plates at a density of 2×10^3 cells/well. […] After incubation, the supernatant was discarded, insoluble formazan precipitates were dissolved in 0.1 ml of DMSO and the absorbance was measured at 560 nm by use of a microplate reader (Thermo, France). […] IC50's were determined as the halves of maximal inhibitory drug concentration for each cell line. […]

[2] = 10 mg/kg OTX-008 i.p. every other day

Structure (SMILES): CN(C)CCNC(=O)COc1c2cccc1Cc1cccc(c1OCC(=O)NCCN(C)C)Cc1cccc(c1OCC(=O)NCCN(C)C)Cc1cccc(c1OCC(=O)NCCN(C)C)C2 [OTX-008]
- mice developing subcutaneous metastasis (SQ20B xenografts; 10 mg/kg OTX-008, control group >80%): 14%
- toxicity of the dose (SQ20B xenografts; [2]): non-toxic dose
- tumor growth (SQ20B xenografts; [2]): inhibited the growth of SQ20B xenografts
- cell proliferation (Ki67) (SQ20B xenografts; SQ20B xenograft): significant decrease
- galectin-1 expression in tumors (SQ20B xenografts; SQ20B xenograft): significant decrease
- secondary tumor development (SQ20B xenografts; at mouse autopsies): significantly inhibited secondary tumor development
- number and diameter of micro-vessels (SQ20B xenografts; vs control): significantly reduced
- γH2AX expression (γH2AX): no direct effects
- chk1, chk2, and cdc25C phosphorylation levels (chk1, chk2, and cdc25C): Mild to no changes
- activity in epithelial vs mesenchymal cells [1]: markedly more active in COL0205-S cells than in COL0205-R cells

Reference: patent publication US20140243415A1, “COMPOUNDS INHIBITING GALECTIN-1 EXPRESSION, CANCER CELL PROLIFERATION, INVASION, AND TUMORIGENESIS” (ONCOETHIX SA, priority 2011, published 2014)
